Test results: US20250276993A1, “PSEUDO-DISACCHARIDE COMPOUNDS” (UNIVERSITEIT LEIDEN, priority 2022, published 2025)

Assays:
[1] = molecular target: T1, HPSE (Homo sapiens, UniProt Q9Y251); test: fluorescent ABP labelling of whole cell lysates; type: biochemical
T1 construct: fluorescent ABPs 7, 8 and 9 were applied to whole cell lysates from a panel of human cancer cell lines; endogenous in cells; host or cells: U87, PANC1, SKBR3, MDA-MB-231, HT1080, platelet lysates
T1 sequence (Q9Y251 36-543): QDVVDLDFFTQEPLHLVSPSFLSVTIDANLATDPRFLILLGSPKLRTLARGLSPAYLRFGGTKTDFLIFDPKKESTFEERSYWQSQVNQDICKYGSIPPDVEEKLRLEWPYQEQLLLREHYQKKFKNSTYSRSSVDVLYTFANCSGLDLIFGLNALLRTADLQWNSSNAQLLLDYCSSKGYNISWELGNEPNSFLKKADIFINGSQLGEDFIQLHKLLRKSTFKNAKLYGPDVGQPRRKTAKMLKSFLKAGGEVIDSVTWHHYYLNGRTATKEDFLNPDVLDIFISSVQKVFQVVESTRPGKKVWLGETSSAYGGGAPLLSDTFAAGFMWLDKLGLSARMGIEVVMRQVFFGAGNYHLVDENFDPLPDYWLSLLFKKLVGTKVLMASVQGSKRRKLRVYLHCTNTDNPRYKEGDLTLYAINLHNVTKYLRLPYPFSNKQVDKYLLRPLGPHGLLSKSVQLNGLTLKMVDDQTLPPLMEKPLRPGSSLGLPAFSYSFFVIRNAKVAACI
Procedure: ABP labelling reactions were carried out in Mcllvaine buffer (pH 5.5), 300 mM NaCl. For recombinant proteins 200 fmol of EcGH2, BpHep, AcGH79, HPSE or proHPSE was used (20 nM in 10 μl final reaction volume). For labeling cell lysates, 4-20 μg total protein was used. Labeling reactions were initiated by the addition of ABP compounds 7, 8 or 9 to a final concentration of 100 nM (unless otherwise specified), before incubation for 30 min at 37° C. with shaking. Following labeling, samples were denatured by boiling with Laemmli buffer for 5 min and resolved by SDS-PAGE. Gels were scanned using Typhoon-5 laser scanner platform (Cytiva), using the λEX 635 nm laser and 670BP30 emission filter. For competitive ABPP (cABPP) experiments, protein mixtures were preincubated with inhibitor (or buffer only control) for 1 h at 37° C. with shaking, before the addition of 7 to a final concentration of 100 nM, and subsequent incubation for 30 min at 37° C. with shaking. SDS-PAGE and analysis steps were carried out as above. For quantitative measurements, fluorescently labeled band intensities were calculated using Imagequant (Cytiva), and normalized to the corresponding band in the inhibitor free control lane. cABPP plots were prepared and analyzed using SigmaPlot 14.0 (Systat). […]

[2] = molecular target: T2, HPSE (Homo sapiens, UniProt Q9Y251); test: cABPP Assay 1, recombinant HPSE; type: biochemical; conditions: 1 h preincubation at 37° C., pH 5.5, 100 nM ABP 7
T2 sequence (Q9Y251 36-109 limits assumed): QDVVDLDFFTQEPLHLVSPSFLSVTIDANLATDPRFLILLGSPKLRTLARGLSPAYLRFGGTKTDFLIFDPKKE
T2 sequence (Q9Y251 158-543 limits assumed): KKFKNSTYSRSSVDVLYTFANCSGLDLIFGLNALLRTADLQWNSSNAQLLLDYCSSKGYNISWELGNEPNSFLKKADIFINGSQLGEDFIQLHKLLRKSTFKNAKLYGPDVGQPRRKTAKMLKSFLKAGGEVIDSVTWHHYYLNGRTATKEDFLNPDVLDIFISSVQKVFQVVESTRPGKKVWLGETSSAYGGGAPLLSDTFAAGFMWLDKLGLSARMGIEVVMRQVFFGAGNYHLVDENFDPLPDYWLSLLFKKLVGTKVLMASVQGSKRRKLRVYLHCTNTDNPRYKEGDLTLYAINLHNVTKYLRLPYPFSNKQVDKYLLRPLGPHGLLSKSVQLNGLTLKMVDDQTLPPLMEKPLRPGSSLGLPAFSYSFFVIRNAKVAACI

[3] = molecular target: T2, HPSE; test: X-ray crystallography, ligand soaking of HPSE crystals; conditions: crystal soaking
Source text: Xray diffraction data were collected at 100 K at beamlines i03 (HPSE-2, HPSE-3, HPSE-4, EcGUSB-1, BpHep-3), i04 (AcGH79-2, BpHep-2) and i04-1 (Apo-AcGH79, AcGH79-1, AcGH79-3) of the Diamond Light Source UK. Reflections were autoprocessed using the XIA2 pipeline. Complexes were solved by directly refining against their unliganded structures where isomorphous, or else solved by molecular replacement with PHASER (search model PDB accessions: 5E98 (HPSE), 3VNY (AcGH79), 3K46 (EcGUSB), 5BWI (BpHep)). […] Ligand coordinates were built using jLigand. Diagrams were generated using PyMOL.
HPSE—Well diffracting crystals of HPSE were obtained by the sitting-drop vapor-diffusion method at 20° C. using a well solution containing 0.1 M MES pH 5.5, 0.1 M MgCl2, 17% (w/v) PEG 3350, and a protein to well solution ratio of 200 nl:500 nl. Crystals typically appeared after 1 week. Inhibitor ligand complexes were obtained by transferring HPSE crystals to drops of well solution supplemented with 25% (v/v) ethylene glycol and 1-5 mM inhibitor. Crystals were incubated with ligand for ˜2-4 h, then directly harvested and flash-cooled in LN2 for data collection.
To better understand the molecular basis of interaction between our inhibitors and their targets, we turned to X-ray crystallography, using ligand soaking to derivatize enzymes in crystallo.

[4] = molecular target: T3, GUSB (Homo sapiens, UniProt P08236); test: cABPP Assay 2, platelet lysates, GUSB; type: biochemical; conditions: preincubation with inhibitor
T3 construct: Platelet lysates contain complex mixtures of overlapping enzyme activities, including both endo- and exo-β-glucuronidases HPSE and GUSB; endogenous in cells; host or cells: human platelet lysates
T3 sequence (P08236 23-651): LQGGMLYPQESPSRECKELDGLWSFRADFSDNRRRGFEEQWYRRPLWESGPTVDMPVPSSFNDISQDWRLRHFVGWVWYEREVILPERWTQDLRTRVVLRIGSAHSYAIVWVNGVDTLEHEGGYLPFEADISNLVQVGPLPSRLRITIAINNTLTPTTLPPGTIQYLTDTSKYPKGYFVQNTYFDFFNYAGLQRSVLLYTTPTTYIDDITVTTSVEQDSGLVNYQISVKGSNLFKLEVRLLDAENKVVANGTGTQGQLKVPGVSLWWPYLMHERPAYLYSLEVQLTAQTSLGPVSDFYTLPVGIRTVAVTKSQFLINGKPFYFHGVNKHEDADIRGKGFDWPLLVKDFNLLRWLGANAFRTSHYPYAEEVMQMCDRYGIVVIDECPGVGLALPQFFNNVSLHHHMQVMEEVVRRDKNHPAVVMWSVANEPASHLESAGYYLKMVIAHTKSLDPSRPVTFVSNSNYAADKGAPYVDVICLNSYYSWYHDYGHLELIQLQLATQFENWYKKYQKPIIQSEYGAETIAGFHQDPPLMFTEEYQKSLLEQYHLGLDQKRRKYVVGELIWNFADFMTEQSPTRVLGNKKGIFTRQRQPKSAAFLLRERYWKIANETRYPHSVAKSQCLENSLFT
Procedure: (§1) For further competitive ABPP studies, a working protein mixture was prepared by mixing the platelet lysates (87.5 μL), buffer (pH 5.0, 150 mM, 157.5 μL) and 3 M NaCl solution (35 μL). The enzymatic reactions were carried out at a constant concentration of read-out 7 (100 nM, final). For each inhibitor 2, 12 and 13, triplicate sets of ten 0.5 mL low protein binding Eppendorf tubes were prepared. Working solutions of each inhibitor (1% DMSO (w/v), 5 μL) in a range of ten concentrations (100, 50, 25, 12.5, 6.3, 3.1, 1.6, 0.8, 0.4, 0 μM) were prepared with MilliQ water and kept on ice. The working protein mixture (8 μL) was added in each protein low binding 0.5 mL Eppendorf tube, and 1 μL of inhibitor solution was added while on ice.
(§2) Further cABPP studies were undertaken using platelet lysates to provide a more physiologically realistic environment. Platelet lysates contain complex mixtures of overlapping enzyme activities, including both endo- and exo-β-glucuronidases HPSE and GUSB respectively, thus provide a challenging environment to test inhibitor specificity.

[5] = molecular target: AcGH79 (Acidobacterium capsulatum, UniProt C1F2K5); test: in-gel competitive ABPP, recombinant AcGH79; type: biochemical, A. capsulatum; conditions: Cy5-tagged β-D-glucuronidase ABP read-out, at the tested enzyme concentration
Procedure: (§3) ABP labelling reactions were carried out in Mcllvaine buffer (pH 5.5), 300 mM NaCl. For recombinant proteins 200 fmol of EcGH2, BpHep, AcGH79, HPSE or proHPSE was used (20 nM in 10 μl final reaction volume). For labeling cell lysates, 4-20 μg total protein was used. Labeling reactions were initiated by the addition of ABP compounds 7, 8 or 9 to a final concentration of 100 nM (unless otherwise specified), before incubation for 30 min at 37° C. with shaking. Following labeling, samples were denatured by boiling with Laemmli buffer for 5 min and resolved by SDS-PAGE. Gels were scanned using Typhoon-5 laser scanner platform (Cytiva), using the λEX 635 nm laser and 670BP30 emission filter. For competitive ABPP (cABPP) experiments, protein mixtures were preincubated with inhibitor (or buffer only control) for 1 h at 37° C. with shaking, before the addition of 7 to a final concentration of 100 nM, and subsequent incubation for 30 min at 37° C. with shaking. SDS-PAGE and analysis steps were carried out as above. For quantitative measurements, fluorescently labeled band intensities were calculated using Imagequant (Cytiva), and normalized to the corresponding band in the inhibitor free control lane. cABPP plots were prepared and analyzed using SigmaPlot 14.0 (Systat).
(§4) Competitive activity of compounds 2, 12 and 13 were investigated using cABPP Assay 2.

[6] = molecular target: T4, HPSE (platelet) (Homo sapiens, UniProt Q9Y251); test: cABPP Assay 2, platelet lysates, HPSE; type: biochemical; conditions: for IC50: apparent IC50, in-gel competitive ABPP-based assay, platelet lysate, read-out: In vitro IC50 HPSE (platelet); for inhibitor concentration down to which HPSE signal is abrogated: platelet lysates, preincubation with inhibitor
T4 construct: endogenous in cells; host or cells: human platelet lysates
T4 sequence (Q9Y251 158-543 limits assumed): T2 sequence (Q9Y251 158-543 limits assumed)
T4 sequence (Q9Y251 36-109 limits assumed): T2 sequence (Q9Y251 36-109 limits assumed)
Procedure: as §1, §2

[7] = molecular target: T5, rHPSE (Homo sapiens, UniProt Q9Y251); test: in-gel competitive ABPP, recombinant HPSE; type: biochemical; conditions: for IC50: apparent IC50, in-gel competitive ABPP-based assay, read-out: In vitro IC50 rHPSE
T5 sequence (Q9Y251 36-109 limits assumed): T2 sequence (Q9Y251 36-109 limits assumed)
T5 sequence (Q9Y251 158-543 limits assumed): T2 sequence (Q9Y251 158-543 limits assumed)
Procedure: as §3, §4
To gain insight into HPSE structure-activity relationships, apparent HPSE inhibition was tested for cyclitol 12, its disaccharidic analogue 13 and parent HPSE inhibitor 2 (FIG. 7a). […] Conversely, 13 could inactivate rHPSE down to 2 μM inhibitor concentration similar to 2.

[8] = test system: BpHep and AcGH79; type: biochemical, B. pseudomallei; A. capsulatum; conditions: cABPP Assay 1

CC(=O)NC1[C@@H](O[C@@H]2C(C(=O)O)C3O[C@H]3C(O)[C@H]2O)OC(CO)[C@@H](OCCCCCCCCNC(=O)CCCCC[N+]2=C(/C=C/C=C/C=C3/N(C)c4ccccc4C3(C)C)C(C)(C)c3ccccc32)[C@@H]1O (stereo partly drawn) [Compound 9, 4-O-(2-N-acetyl-2-deoxy-4-O-(8-amino-Cy5-1-octyl)-α-D-glucopyranosyl)-glucurono-cyclophellitol]
most substantial off-target ([1]; 10 μM ABP concentration): serum albumin | HPSE specificity of labelling ([1]; ABP at 1 μM and 10 μM, lysates of U87, PANC1, SKBR3, MDA-MB-231, HT1080, platelets): markedly improved HPSE specificity compared to both 7 and 8

O=C(O)C1C2O[C@H]2C(O)C(O)[C@@H]1O[C@@H]1CC(O)[C@H](O)C(CO)O1 (stereo partly drawn) [Compound 4, 4-O-(2-deoxy-D-glucopyranosyl)-glucurono-cyclophellitol]
HPSE inhibition (abrogation of labelling by ABP 7) [2]: inhibited HPSE at nanomolar concentrations | binding mode in HPSE active site cleft [3]: covalent linkages between their pseudo-anomeric carbons and the enzyme nucleophile Glu343

[N-]=[N+]=NCC(=O)NC1C(O)[C@H](O)C(CO)O[C@@H]1O[C@H]1C(O)C(O)[C@@H]2OC2C1C(=O)O (stereo partly drawn) [Compound 6, 4-O-(2-N-azidoacetyl-2-deoxy-D-glucopyranosyl)-glucurono-cyclophellitol]
HPSE inhibition (abrogation of labelling by ABP 7) [2]: do not inhibit HPSE well

O=C(O)C1C2O[C@H]2C(O)C(O)[C@@H]1O[C@H]1CC(CO)[C@@H](O)C(O)C1O (stereo in doubt) [Compound 12, 4,5-dihydroxy-3-((2,3,4-trihydroxy-5-(hydroxymethyl)cyclohexyl)oxy)-7-oxabicyclo[4.1.0]heptane-2-carboxylic acid]
effect on GUS signals [4]: without altering GUS signals | IC50 [5]: 1200 ± 300 nM | IC50 [6]: 400 ± 200 nM | inhibitor concentration down to which HPSE signal is abrogated [6]: 2.5 µM | IC50 [7]: 500 ± 500 nM

NC1C(O)[C@H](O)C(CO)O[C@@H]1O[C@H]1C(O)C(O)[C@@H]2OC2C1C(=O)O (stereo partly drawn) [Compound 5, 4-O-(2-amino-2-deoxy-D-glucopyranosyl)-glucurono-cyclophellitol]
HPSE inhibition (abrogation of labelling by ABP 7) [2]: do not inhibit HPSE well | Inhibition of BpHep and AcGH79 [8]: all compounds apart from 5 showing activity

O=C(O)C1C2O[C@H]2C(O)C(O)[C@@H]1O[C@H]1OC(CO)[C@@H](O)C(O)C1O (stereo in doubt) [Compound 13, 4,5-dihydroxy-3-((3,4,5-trihydroxy-6-(hydroxymethyl)tetrahydro-2H-pyran-2-yl)oxy)-7-oxabicyclo[4.1.0]heptane-2-carboxylic acid]
effect on GUS signals [4]: without altering GUS signals | IC50 [6]: 5000 ± 1000 nM | inhibitor concentration down to which HPSE signal is abrogated [6]: 2.5 µM | IC50 [7]: 1000 ± 1000 nM | inhibitor concentration down to which rHPSE is inactivated ([7]; in-gel competitive ABPP): 2 µM
